Values of other authors, collected in US11723862B2, “Dosage form with sustained release melatonin pellets” (SOCIÉTÉ DES PRODUITS NESTLÉ S.A., priority 2020, dated 2023).

Conditions: above pH=4.4

aqueous solubility: low
SMILES: COc1ccc2[nH]cc(CCNC(C)=O)c2c1 [melatonin]
